According to patent US11472844B2, “Peptidomimetics, method of synthesis and uses thereof” (priority 2017, dated 2022):
Entries after “also recorded” stand apart in the source; their conditions may differ. *: point of attachment. X1 = CC[N+]1=C(/C=C/C=C/C=C2N(CCCCCC(=O)NCCN3C(=O)CC(*)C3=O)c3ccc(S(=O)(=O)O)cc3C2(C)C)C(C)(C)c2cc(S(=O)(=O)[O-])ccc21

Legend:
[1] = tested on: human colonic mucus; assay: Fluorescent labelling of human colonic mucus layer; format: binding; details: 1 μg/mL; listed as MUB40#1-Cy5
Method: (§1) Colon explant surgical collection. In summary, human colon segments (ascending, descending, and sigmoid colon) were obtained from fully informed patients undergoing surgery for colon carcinoma and were analyzed anonymously. Patient written consent was obtained, according to the French bioethics law. None of the patients had undergone radiotherapy or chemotherapy. According to the pathologist's examination rules for the longitudinally bisected colon, a healthy segment of tissue, which was distant from the tumor region and devoid of metastatic cells, was removed. Tissues were processed according to the French Government guidelines for research on human tissues and the French Bioethics Act with the authorization no RBM 2009-50.
Fixation and staining procedures. For microscopy studies, purified or cultured cells and polymerized lactoferrin were resuspended onto 24-well plates containing 12 mm coverslips in RMPI 1640+10 mM Hepes (when cultured in the autologous plasma) and centrifuged at 300×g for 10 min. Culture media were removed and cells were fixed in 4% Paraformaldehyde (PFA) for two hours. Fixed cells were washed three times in PBS+0.1% saponin (Sigma-Aldrich), prior immunolabeling with primary antibodies in the same buffer for 1 hour (Triton 0.1% can alternatively be used for cell permeabilization). After three additional washes in PBS+0.1% saponin, secondary antibodies and fluorescent markers were incubated for one hour. […]
(§2) Antibodies, fluorescent markers. For immunofluorescence assay, lactoferrin was detected with a mouse anti-lactoferrin primary monoclonal antibody (Hycult biotech, clone 265-1K1, 1:50 dilution) and an anti-mouse-FITC conjugated secondary antibody (1:1000). Nuclei were detected with DAPI (Life Technologies), Lyophilized MUB40 peptides (MUB40#1 (SEQ ID NO: 3)-Cy5, MUB40#2 (SEQ ID NO: 4)-Cy5, MUB40#3 (SEQ ID NO: 5)-Cy5, MUB40#4 (SEQ ID NO: 6)-Cy5, MUB40#1 (SEQ ID NO: 3)-Dylight, RI-MUB40 (SEQ ID NO: 2)-Cy5, and RI-MUB40 (SEQ ID NO: 2)-Biotin) were solubilized in a phosphate buffer pH8 at a 1 mg/mL concentration and used at a 1:1000 dilution. […]

[2] = tested on: Colonic goblet cell granules; assay: Fluorescent labelling of colonic goblet cell granules on fixed slides; format: cell-based, human; details: 1 μg/mL
Method: as §1, §2

[3] = tested on: human neutrophil granules; assay: Fluorescent labelling of fixed purified human neutrophils; format: cell-based; details: 1 μg/mL
Method: Fixation and staining procedures. For microscopy studies, purified or cultured cells and polymerized lactoferrin were resuspended onto 24-well plates containing 12 mm coverslips in RMPI 1640+10 mM Hepes (when cultured in the autologous plasma) and centrifuged at 300×g for 10 min. Culture media were removed and cells were fixed in 4% Paraformaldehyde (PFA) for two hours. Fixed cells were washed three times in PBS+0.1% saponin (Sigma-Aldrich), prior immunolabeling with primary antibodies in the same buffer for 1 hour (Triton 0.1% can alternatively be used for cell permeabilization). After three additional washes in PBS+0.1% saponin, secondary antibodies and fluorescent markers were incubated for one hour. Coverslips were washed three time in PBS+0.1% saponin, three times in PBS, and three times in deionized H2O and mounted with prolong gold^tm mounting media.
Antibodies, fluorescent markers. For immunofluorescence assay, lactoferrin was detected with a mouse anti-lactoferrin primary monoclonal antibody (Hycult biotech, clone 265-1K1, 1:50 dilution) and an anti-mouse-FITC conjugated secondary antibody (1:1000). Nuclei were detected with DAPI (Life Technologies), Lyophilized MUB40 peptides (MUB40#1 (SEQ ID NO: 3)-Cy5, MUB40#2 (SEQ ID NO: 4)-Cy5, MUB40#3 (SEQ ID NO: 5)-Cy5, MUB40#4 (SEQ ID NO: 6)-Cy5, MUB40#1 (SEQ ID NO: 3)-Dylight, RI-MUB40 (SEQ ID NO: 2)-Cy5, and RI-MUB40 (SEQ ID NO: 2)-Biotin) were solubilized in a phosphate buffer pH8 at a 1 mg/mL concentration and used at a 1:1000 dilution. For PBMC staining CD19-APC (B lymphocytes), CD3-APC (T lymphocytes), and CD14-PercP (monocytes, macrophages) (BD Bioscience) were used at a 1:1000 dilution together with Dapi (1:1000) and MUB40-Cy5 (1 mg/mL). Actin was stained with Phalloidin-Rhodamine red X (RRX) (Jackson Immunoresearch Antibodies) used at a 1:1000 final dilution.
(§3) Polymorphonuclear neutrophils purification. Human polymorphonuclear neutrophils were purified as described previously (Monceaux et al. 2016). Briefly, plasma was removed by centrifugation (450×g, 15 min); blood cells were resuspended in 0.9% NaCl solution supplemented with 0.72% Dextran. After red blood cells sedimentation, white blood cells were pelleted and further separated on a two layer Percoll (GE Healthcare) (51%−42%) by centrifugation (at 240×g, 20 min). PBMC (top layer) were isolated from polymorphonuclear neutrophils (bottom layer). Red blood cells were removed from the latter fraction using CD235a (glycophorin) microbeads (negative selection) (Miltenyi Biotec). PBMCs and polymorphonuclear neutrophils were resuspended in the autologous plasma. Guinea pig and mouse polymorphonuclear neutrophils were purified with the same procedure.
Confocal microscopy. […]

[4] = tested on: Human hematopoietic stem cells (CD34+); assay: Labelling of hematopoietic stem cells and derived neutrophils; format: cell-based
Method: Hematopoietic Stem cells (CD34+) purification, proliferation and differentiation. HSC were purified from cytapheresis products with a CD34 Microbead Kit Ultrapure, according to the manufacturer procedure (Miltenyi). Lin^−/CD34+ HSC purity yield was >98%. CD34+ HSC were cultured in StemSpan SFEM II supplemented with SCF (100 ng/ml), IL-3 (10 ng/ml), and IL-6 (100 ng/ml) at 37° C. with 5% CO2. Neutrophil differentiation was induced in StemSpan SFEM II containing G-CSF (10 ng/ml), SCF (100 ng/ml), and IL-3 (10 ng/ml) for 13 days at 37° C. with 5% CO2.

[5] = tested on: guinea pig circulating neutrophils; assay: Labelling of fixed guinea pig neutrophils; format: cell-based
Method: as §3

[6] = tested on: neutrophils recruited to mouse colon infected with Shigella sonnei; assay: Mouse model of shigellosis, staining of fixed colon sections; details: 1 μg/ml
Method: Mouse. The experimental protocol was approved by the french Ethic Committee Paris (number 20150042). Female 6 week-old BALB/cJRi mice from Charles River were orally gavaged with streptomycin (100 μL of 200 mg/ml solution) 24 hours prior to Shigella sonnei infection. Mice were orally gavaged with 10^10 CFUs S. sonnei carrying pMW211 expressing DsRed and monitored for 24 hours. At the end of the experiment, animals were sacrificed and tissue sections from the colon were extracted. Colon sections were placed in 4% paraformaldehyde (PFA) solution for 2 hours. PFA fixed tissue sections were passaged for 16 hours in 16% sucrose followed by 4 hours in 30% sucrose solutions. Fixed colon slices were embedded in OCT (VWR 361603E) and flash frozen in dry ice chilled 2-methylbutane. Frozen blocks were stored at −80 until sectioning. […] Tissue slices were prepared for fluorescence microscopy by incubation in 0.1% saponin for 1 hour followed by incubation with fluorescent markers specific for actin (phalloidin-FITC, Life Technology) and MUB40-Cy5 at a final 1 μg/ml concentration. […]
Spinning disk microscope. Mouse colons infected with S. sonnei pDsRed were imaged on a Bruker Opterra fluorescence microscope using a Zeiss Plan-Apochromat 63×/1.40 oil immersion lense and Prairie View software version 5.3. […]

“Ac-C(X1)TAEGIKKFEGDGYELFKDNFPAGEKFDNDDTNDQFYTVIF-NH2 [Cy5-MUB40#1]” was tested, and the “labelling of / binding to human colonic mucus” value [1] was “labelled; also recorded: conserved the ability to bind to and fluorescently label the human colonic mucus”, the “labelling of colonic goblet cell granules” value [2] was “labelled” and the “labelling of human neutrophil granules” value ([3]; listed as MUB40#1-Cy5) was “granular staining”. The “labelling of human neutrophil granules” value ([3]; listed as MUB40-Cy5) was “specifically labeled”, the “labelling after differentiation in polymorphonuclear neutrophils” value ([4]; G-CSF, IL-3, IL-6, 2 weeks) was “positive staining” and the “labelling of hematopoietic stem cells” value ([4]; during proliferation) was “not labelled”. For the same substance, the labelling of neutrophils [5] was “efficiently labeled” and the “labelling of recruited neutrophils” value [6] was “specifically labeled”.
